# Earlier results in patent US20100125094A1, “PY[…] NICOTINIC ACETYLCHOLINE RECEPTORS” (AUSPEX PHARMACEUTICALS, INC., priority 2008, published 2010).
smiles,measurement,setting,value
"CN1CCCC1c1cccnc1 (centres unmarked) [Nicotine, 3-(1-methyl-pyrrolidin-2-yl)-pyridine]",half life of nicotine in the body,in the body,around two
same,time for nicotine to reach the brain,"when inhaled, on average",about seven
